From ChEMBL document CHEMBL1154920, “Rare casbane diterpenoids from the Hainan soft coral Sinularia depressa” (J Nat Prod, 2010)

Experiments:
Staphylococcus aureus = experiment: Antibacterial activity against Staphylococcus aureus by broth macrodilution method; format: functional, organism-based
SW1990 = experiment: Cytotoxicity against human SW1990 cells after 72 hrs by MTT assay; format: functional, cell-based; conditions: SW1990, 72 h
HepG2 = experiment: Cytotoxicity against human HepG2 cells after 72 hrs by MTT assay; format: functional, cell-based; conditions: HepG2, 72 h
Escherichia coli = experiment: Antibacterial activity against Escherichia coli by broth macrodilution method; format: functional, organism-based

- IC50 (Staphylococcus aureus): 17 µM
- IC50 (Escherichia coli): 17 µM
SMILES: C/C1=C\[C@@H](O)C/C(C)=C/CC(=O)/C(C)=C/[C@@H]2[C@H](CC1)C2(C)C
- IC50 (SW1990): 37 µM
- IC50 (HepG2): 61 µM
